Reference: ChEMBL document CHEMBL5291721, “A preclinical secondary pharmacology resource illuminates target-adverse drug reaction associations of marketed drugs” (Nat Commun, 2023)

How the values were obtained:
[1] = biological target: T1, 5-hydroxytryptamine receptor 1A (Homo sapiens, UniProt P08908)
T1 sequence (P08908 whole entry): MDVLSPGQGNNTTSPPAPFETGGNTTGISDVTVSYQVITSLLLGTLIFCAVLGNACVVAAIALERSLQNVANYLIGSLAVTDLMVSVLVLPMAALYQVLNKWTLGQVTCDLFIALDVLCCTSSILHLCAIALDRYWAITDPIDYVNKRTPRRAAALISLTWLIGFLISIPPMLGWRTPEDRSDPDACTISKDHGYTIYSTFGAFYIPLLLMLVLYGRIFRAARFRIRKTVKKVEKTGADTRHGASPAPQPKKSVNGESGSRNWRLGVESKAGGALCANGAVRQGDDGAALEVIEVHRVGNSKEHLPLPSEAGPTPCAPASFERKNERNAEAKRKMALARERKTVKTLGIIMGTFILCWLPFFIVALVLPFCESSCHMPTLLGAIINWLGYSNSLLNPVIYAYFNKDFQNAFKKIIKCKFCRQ

D(1A) dopamine receptor = D(1A) dopamine receptor (Homo sapiens, UniProt P21728)
[2] = biological target: Sodium-dependent dopamine transporter (Homo sapiens, UniProt Q01959)
[3] = biological target: T2, Prostaglandin G/H synthase 1 (Homo sapiens, UniProt P23219); format: functional
Prothrombin = Prothrombin (Homo sapiens, UniProt P00734); format: functional
[4] = biological target: T2, Prostaglandin G/H synthase 1; format: functional; remark: listed apart in the source
Mu-type opioid receptor = Mu-type opioid receptor (Homo sapiens, UniProt P35372)
[5] = biological target: cGMP-inhibited 3',5'-cyclic phosphodiesterase 3A (Homo sapiens, UniProt Q14432); format: functional
Acetylcholinesterase = Acetylcholinesterase (Homo sapiens, UniProt P22303); format: functional
[6] = biological target: 5-hydroxytryptamine receptor 2B (Homo sapiens, UniProt P41595); format: functional, cell-based
[7] = biological target: T3, Alpha-2A adrenergic receptor (Homo sapiens, UniProt P08913)
T3 sequence (P08913 whole entry): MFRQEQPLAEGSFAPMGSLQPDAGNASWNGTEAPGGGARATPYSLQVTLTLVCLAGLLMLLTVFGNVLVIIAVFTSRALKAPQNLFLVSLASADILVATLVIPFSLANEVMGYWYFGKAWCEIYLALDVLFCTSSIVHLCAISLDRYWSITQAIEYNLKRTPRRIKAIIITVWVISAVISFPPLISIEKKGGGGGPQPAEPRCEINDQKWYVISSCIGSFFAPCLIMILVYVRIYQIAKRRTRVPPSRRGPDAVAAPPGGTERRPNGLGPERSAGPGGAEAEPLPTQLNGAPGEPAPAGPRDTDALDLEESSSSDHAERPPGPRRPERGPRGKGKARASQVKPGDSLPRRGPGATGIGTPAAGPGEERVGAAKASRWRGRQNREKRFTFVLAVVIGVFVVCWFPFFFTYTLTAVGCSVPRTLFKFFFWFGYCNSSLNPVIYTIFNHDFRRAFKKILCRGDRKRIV

Thromboxane A2 receptor [8] = biological target: T4, Thromboxane A2 receptor (Homo sapiens, UniProt P21731); format: functional, cell-based
T4 sequence (P21731 whole entry): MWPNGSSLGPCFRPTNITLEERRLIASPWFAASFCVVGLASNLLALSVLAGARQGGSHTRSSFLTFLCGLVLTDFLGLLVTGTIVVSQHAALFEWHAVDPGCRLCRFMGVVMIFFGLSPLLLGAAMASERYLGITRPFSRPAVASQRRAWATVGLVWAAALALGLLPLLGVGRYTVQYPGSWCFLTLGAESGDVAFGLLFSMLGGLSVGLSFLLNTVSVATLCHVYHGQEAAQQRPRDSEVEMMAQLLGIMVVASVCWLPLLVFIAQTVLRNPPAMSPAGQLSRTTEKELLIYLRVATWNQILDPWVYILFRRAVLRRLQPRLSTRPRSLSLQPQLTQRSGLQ

Thromboxane A2 receptor [9] = biological target: T4, Thromboxane A2 receptor; format: functional, cell-based; remark: listed apart in the source
[10] = biological target: 3',5'-cyclic-AMP phosphodiesterase 4A (Homo sapiens, UniProt P27815); format: functional
D(3) dopamine receptor = D(3) dopamine receptor (Homo sapiens, UniProt P35462)
[11] = biological target: Sodium-dependent noradrenaline transporter (Homo sapiens, UniProt P23975)
Bile salt export pump = Bile salt export pump (Homo sapiens, UniProt O95342); format: functional
[12] = biological target: T5, Amine oxidase [flavin-containing] A (Homo sapiens, UniProt P21397); format: functional
T5 sequence (P21397 whole entry): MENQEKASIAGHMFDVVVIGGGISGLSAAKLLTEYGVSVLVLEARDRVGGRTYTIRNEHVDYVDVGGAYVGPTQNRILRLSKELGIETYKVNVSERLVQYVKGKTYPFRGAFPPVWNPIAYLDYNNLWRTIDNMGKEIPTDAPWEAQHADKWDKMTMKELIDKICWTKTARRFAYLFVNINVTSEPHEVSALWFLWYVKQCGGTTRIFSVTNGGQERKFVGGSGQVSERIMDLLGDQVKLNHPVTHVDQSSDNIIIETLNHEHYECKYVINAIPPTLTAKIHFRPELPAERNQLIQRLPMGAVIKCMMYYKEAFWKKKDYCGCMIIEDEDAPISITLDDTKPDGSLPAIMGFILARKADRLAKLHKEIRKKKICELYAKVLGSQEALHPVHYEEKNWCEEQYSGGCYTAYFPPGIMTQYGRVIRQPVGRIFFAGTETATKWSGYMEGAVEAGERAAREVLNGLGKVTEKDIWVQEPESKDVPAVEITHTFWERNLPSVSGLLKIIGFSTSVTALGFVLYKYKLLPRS
Also: assay procedure not described here.

Sodium-dependent dopamine transporter, sequence (Q01959 whole entry): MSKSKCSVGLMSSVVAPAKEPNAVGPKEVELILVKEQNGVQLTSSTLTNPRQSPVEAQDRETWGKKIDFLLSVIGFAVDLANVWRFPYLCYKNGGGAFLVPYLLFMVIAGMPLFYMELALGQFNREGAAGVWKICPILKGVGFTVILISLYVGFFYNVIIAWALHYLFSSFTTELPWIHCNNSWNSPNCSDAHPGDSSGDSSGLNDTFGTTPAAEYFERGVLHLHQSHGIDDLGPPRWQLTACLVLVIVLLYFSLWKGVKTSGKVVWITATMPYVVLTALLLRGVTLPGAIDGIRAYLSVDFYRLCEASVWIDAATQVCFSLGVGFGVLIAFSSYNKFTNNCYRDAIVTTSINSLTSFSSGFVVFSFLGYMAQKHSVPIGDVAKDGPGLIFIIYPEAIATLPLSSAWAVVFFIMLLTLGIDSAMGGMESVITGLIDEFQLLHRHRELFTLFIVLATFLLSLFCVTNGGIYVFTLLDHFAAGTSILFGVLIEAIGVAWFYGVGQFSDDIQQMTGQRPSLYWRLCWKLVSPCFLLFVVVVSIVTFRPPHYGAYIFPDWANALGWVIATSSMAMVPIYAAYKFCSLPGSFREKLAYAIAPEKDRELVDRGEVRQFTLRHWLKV
Bile salt export pump, sequence (O95342 whole entry): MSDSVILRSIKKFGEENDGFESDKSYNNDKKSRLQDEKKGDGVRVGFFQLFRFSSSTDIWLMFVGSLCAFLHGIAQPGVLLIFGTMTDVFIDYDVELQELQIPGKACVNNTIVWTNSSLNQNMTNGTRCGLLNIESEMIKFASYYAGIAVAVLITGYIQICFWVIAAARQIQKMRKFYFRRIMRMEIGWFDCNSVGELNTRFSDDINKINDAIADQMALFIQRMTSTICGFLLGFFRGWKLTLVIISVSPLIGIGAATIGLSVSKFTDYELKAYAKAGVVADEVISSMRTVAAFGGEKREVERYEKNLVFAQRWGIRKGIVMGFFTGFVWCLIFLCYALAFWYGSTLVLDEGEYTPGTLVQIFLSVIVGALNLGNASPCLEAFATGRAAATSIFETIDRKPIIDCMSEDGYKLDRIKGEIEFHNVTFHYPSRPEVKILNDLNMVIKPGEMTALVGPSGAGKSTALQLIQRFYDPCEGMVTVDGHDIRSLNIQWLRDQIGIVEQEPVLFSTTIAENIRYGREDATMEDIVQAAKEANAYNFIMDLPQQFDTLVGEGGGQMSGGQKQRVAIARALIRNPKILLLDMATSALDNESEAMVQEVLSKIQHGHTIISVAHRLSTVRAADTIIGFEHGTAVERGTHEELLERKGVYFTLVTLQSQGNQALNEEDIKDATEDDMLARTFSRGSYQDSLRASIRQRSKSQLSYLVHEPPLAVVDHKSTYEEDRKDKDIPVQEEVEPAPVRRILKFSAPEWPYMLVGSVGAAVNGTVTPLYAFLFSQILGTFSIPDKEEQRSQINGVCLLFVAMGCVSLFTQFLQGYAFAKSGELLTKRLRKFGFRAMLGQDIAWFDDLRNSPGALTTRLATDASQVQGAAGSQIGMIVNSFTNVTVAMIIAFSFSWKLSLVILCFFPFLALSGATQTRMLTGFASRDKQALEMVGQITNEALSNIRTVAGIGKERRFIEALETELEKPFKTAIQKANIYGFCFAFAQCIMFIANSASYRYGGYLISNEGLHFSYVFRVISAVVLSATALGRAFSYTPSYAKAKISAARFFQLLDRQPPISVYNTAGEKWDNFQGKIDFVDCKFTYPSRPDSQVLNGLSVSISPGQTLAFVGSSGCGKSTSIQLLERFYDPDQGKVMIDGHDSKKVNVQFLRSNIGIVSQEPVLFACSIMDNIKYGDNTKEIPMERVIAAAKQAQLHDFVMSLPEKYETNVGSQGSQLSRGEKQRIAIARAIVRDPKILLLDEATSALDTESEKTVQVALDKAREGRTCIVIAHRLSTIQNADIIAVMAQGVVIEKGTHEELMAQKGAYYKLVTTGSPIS
Sodium-dependent noradrenaline transporter, sequence (P23975 whole entry): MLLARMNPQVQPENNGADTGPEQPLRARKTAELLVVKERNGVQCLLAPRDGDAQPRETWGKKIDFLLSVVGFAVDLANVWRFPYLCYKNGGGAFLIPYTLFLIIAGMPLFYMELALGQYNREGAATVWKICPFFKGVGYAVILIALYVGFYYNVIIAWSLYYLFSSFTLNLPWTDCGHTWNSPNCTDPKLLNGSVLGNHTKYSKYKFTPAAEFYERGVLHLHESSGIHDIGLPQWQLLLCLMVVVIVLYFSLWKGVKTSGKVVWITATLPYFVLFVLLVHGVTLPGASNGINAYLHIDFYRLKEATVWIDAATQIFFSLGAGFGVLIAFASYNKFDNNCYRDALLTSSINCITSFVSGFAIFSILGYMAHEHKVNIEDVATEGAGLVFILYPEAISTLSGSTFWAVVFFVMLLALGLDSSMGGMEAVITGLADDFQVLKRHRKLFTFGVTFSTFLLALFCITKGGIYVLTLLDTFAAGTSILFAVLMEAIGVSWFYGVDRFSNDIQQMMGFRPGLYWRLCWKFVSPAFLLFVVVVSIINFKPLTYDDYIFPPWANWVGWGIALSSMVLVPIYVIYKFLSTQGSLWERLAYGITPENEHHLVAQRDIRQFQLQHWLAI
5-hydroxytryptamine receptor 2B, sequence (P41595 whole entry): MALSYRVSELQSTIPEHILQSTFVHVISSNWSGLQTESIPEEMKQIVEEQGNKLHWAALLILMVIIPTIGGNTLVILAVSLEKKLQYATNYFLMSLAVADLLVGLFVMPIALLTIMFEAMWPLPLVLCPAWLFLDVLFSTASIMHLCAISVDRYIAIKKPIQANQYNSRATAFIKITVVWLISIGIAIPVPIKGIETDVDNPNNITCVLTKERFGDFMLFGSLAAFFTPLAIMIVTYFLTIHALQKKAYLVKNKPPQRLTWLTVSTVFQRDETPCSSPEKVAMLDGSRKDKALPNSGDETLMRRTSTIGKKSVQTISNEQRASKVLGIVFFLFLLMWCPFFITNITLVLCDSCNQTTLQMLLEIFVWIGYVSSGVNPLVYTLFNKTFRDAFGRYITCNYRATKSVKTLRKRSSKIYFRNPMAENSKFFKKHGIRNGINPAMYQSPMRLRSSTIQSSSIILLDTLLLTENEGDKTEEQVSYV
cGMP-inhibited 3',5'-cyclic phosphodiesterase 3A, sequence (Q14432 whole entry): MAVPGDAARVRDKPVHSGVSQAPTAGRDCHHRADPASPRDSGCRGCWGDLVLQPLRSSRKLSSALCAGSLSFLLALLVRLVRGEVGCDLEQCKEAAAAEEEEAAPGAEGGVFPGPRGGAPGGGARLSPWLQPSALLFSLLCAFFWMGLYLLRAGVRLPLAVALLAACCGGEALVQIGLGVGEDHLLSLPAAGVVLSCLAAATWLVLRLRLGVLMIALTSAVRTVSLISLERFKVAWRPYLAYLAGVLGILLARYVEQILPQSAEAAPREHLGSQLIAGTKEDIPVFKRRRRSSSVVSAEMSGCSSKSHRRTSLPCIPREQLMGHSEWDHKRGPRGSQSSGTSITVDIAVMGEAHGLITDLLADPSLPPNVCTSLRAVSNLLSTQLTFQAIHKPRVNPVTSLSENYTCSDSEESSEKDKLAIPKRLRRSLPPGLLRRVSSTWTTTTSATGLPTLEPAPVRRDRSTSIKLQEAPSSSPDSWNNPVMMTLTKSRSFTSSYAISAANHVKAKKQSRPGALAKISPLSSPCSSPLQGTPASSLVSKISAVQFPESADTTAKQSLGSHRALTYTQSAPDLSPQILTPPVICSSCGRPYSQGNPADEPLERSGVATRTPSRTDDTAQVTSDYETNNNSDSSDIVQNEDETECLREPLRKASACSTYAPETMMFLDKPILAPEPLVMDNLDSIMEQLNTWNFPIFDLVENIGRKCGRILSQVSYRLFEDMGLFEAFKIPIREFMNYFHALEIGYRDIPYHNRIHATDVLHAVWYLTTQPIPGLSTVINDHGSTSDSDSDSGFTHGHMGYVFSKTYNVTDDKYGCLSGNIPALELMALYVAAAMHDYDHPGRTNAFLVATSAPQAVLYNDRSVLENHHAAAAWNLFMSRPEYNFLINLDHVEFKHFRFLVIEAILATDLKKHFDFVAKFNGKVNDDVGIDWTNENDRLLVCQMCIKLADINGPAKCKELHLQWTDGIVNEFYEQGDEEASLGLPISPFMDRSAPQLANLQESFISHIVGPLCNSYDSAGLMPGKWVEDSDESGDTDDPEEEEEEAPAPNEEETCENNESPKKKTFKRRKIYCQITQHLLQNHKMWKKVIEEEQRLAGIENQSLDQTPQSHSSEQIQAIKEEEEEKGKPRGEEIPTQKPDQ
T2 sequence (P23219 whole entry): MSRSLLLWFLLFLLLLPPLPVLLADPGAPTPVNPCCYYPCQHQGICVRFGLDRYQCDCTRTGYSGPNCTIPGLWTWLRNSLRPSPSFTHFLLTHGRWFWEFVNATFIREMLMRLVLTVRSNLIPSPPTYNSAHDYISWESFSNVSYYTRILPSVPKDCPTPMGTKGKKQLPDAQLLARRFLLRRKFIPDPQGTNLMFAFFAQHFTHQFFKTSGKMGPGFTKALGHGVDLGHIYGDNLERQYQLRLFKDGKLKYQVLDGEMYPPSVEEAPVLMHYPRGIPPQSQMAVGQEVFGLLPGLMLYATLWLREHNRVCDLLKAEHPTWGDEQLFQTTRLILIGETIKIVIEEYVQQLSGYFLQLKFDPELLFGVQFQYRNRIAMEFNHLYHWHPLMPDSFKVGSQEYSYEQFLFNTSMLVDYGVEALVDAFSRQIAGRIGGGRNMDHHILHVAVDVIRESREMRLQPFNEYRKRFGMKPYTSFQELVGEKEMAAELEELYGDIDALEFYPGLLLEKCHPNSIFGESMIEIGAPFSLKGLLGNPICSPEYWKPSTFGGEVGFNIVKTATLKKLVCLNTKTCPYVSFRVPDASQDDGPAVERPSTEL

Row | SMILES | AC50 [1] | AC50 (D(1A) dopamine receptor) | AC50 [2] | AC50 [3] | AC50 (Prothrombin) | AC50 [4] | AC50 (Mu-type opioid receptor) | AC50 [5] | AC50 (Acetylcholinesterase) | AC50 [6] | AC50 [7] | AC50 (Thromboxane A2 receptor [8]) | AC50 (Thromboxane A2 receptor [9]) | AC50 [10] | AC50 (D(3) dopamine receptor) | AC50 [11] | AC50 (Bile salt export pump) | AC50 [12]
1 | O=C(O)COc1nn(Cc2ccccc2)c2ccccc12 [BENDAZAC] | > 30 µM | > 30 µM | > 30 µM | > 30 µM | > 30 µM | > 30 µM | > 30 µM | > 30 µM | > 30 µM | > 30 µM | > 30 µM | > 3 µM | > 30 µM | > 30 µM | > 30 µM | > 30 µM | 260 µM | > 30 µM
2 | Cc1ccc([C@@H]2O[C@H](CO)[C@@H](O)[C@H](O)[C@H]2O)cc1Cc1ccc(-c2ccc(F)cc2)s1 [CANAGLIFLOZIN ANHYDROUS] | > 30 µM | > 30 µM | 3.54 µM | > 30 µM | > 30 µM | > 30 µM | > 30 µM | > 30 µM | > 30 µM | > 30 µM | > 30 µM | > 30 µM | > 30 µM | > 30 µM | > 30 µM | > 30 µM | 38 µM | > 30 µM
3 | O=C(O)CCCc1ccc(N(CCCl)CCCl)cc1 [CHLORAMBUCIL] | > 30 µM | > 30 µM | > 30 µM | > 30 µM | > 30 µM | > 30 µM | > 30 µM | > 30 µM | > 30 µM | > 30 µM | > 30 µM | > 30 µM | > 30 µM | > 30 µM | > 30 µM | > 30 µM | 270 µM | > 30 µM
4 | Cn1c(=O)c2c(ncn2CC(O)CO)n(C)c1=O (stereo not given) [DYPHYLLINE] | > 30 µM | > 30 µM | > 30 µM | > 30 µM | > 30 µM | > 30 µM | > 30 µM | > 30 µM | > 30 µM | > 30 µM | > 30 µM | > 30 µM | > 30 µM | > 30 µM | > 30 µM | > 30 µM | > 300 µM | > 30 µM
5 | C#Cc1cccc(Nc2ncnc3cc(OCCOC)c(OCCOC)cc23)c1 [ERLOTINIB] | > 30 µM | > 10 µM | > 30 µM | > 30 µM | > 30 µM | 0.0388 µM | 3.82 µM | > 30 µM | > 30 µM | > 30 µM | > 30 µM | > 30 µM | > 30 µM | > 30 µM | > 30 µM | > 30 µM | 6.1 µM | > 30 µM
6 | CCC(=O)O[C@@H](O[P@](=O)(CCCCc1ccccc1)CC(=O)N1C[C@H](C2CCCCC2)C[C@H]1C(=O)O)C(C)C [FOSINOPRIL] | > 30 µM | > 30 µM | > 30 µM | > 30 µM | > 30 µM | > 30 µM | > 30 µM | > 30 µM | > 30 µM | > 30 µM | > 30 µM | > 30 µM | > 30 µM | > 30 µM | > 30 µM | > 30 µM | 11 µM | > 30 µM
7 | CCCCCCCCCCC[C@@H](C[C@@H]1OC(=O)[C@H]1CCCCCC)OC(=O)[C@H](CC(C)C)NC=O [ORLISTAT] | > 30 µM | > 30 µM | > 30 µM | > 30 µM | > 30 µM | > 30 µM | > 30 µM | > 30 µM | – | > 30 µM | > 30 µM | > 30 µM | > 30 µM | > 30 µM | > 30 µM | > 30 µM | > 300 µM | > 30 µM
